Laboratory results reported in ChEMBL document CHEMBL4680217, “Discovery of PROTAC BCL-X degraders as potent anticancer agents with low on-target platelet toxicity” (Eur J Med Chem, 2020).
One block for each compound: values may come before it. The source made the active and inactive calls. The rule behind the calls is not given here.

Tests used:
[1] = molecular target: T1, Protein cereblon/Bcl-2-like protein 1 (Homo sapiens, UniProt Q07817+Q96SW2); experiment: Protac activity at CRBN/BCL-XL in human MOLT-4 cells assessed as induction of BCL-XL degradation measured after 16 hrs by immunoblotting analysis; assay type: cell-based
Target sequence in this assay (Q07817 whole entry): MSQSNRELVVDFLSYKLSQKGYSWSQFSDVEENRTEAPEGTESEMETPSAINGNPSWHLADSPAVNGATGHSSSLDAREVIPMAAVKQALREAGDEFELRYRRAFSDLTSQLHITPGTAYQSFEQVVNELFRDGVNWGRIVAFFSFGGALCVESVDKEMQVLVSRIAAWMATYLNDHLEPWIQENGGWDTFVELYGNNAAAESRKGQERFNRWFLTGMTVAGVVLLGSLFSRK
Target sequence in this assay (Q96SW2 whole entry): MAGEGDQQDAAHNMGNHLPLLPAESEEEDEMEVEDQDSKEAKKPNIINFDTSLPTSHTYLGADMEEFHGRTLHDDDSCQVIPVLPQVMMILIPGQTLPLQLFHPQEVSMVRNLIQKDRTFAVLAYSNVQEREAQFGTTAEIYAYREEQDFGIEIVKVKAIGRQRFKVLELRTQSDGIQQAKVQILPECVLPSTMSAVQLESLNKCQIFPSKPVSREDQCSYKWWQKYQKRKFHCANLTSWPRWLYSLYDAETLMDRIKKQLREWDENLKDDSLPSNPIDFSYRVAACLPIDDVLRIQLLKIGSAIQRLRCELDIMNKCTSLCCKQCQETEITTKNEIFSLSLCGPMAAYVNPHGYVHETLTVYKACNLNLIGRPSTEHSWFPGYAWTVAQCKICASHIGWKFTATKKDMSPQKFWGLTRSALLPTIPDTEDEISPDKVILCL

MOLT-4 = experiment: Antiproliferative activity against human MOLT-4 cells assessed as reduction in cell viability measured after 48 hrs by MTS assay; assay type: functional, cell-based; details: MOLT-4, 48 h
[2] = molecular target: T1, Protein cereblon/Bcl-2-like protein 1; experiment: Protac activity at CRBN/BCL-XL in human MOLT-4 cells assessed as induction of BCL-XL degradation by measuring remaining BCL-XL level at 50 nM measured after 16 hrs by immunoblotting analysis relative to control; assay type: cell-based
Target sequence in this assay (Q07817 whole entry, looked up): as the sequence (Q07817 whole entry) above
Target sequence in this assay (Q96SW2 whole entry, looked up): as the sequence (Q96SW2 whole entry) above

[3] = molecular target: Protein cereblon/Apoptosis regulator Bcl-2 (Homo sapiens) (UniProt P10415+Q96SW2); experiment: Protac activity at CRBN/BCL2 in human MOLT-4 cells assessed as induction of BCL2 degradation at 50 nM measured after 16 hrs by immunoblotting analysis; assay type: cell-based
Sequence of Protein cereblon/Apoptosis regulator Bcl-2 (Homo sapiens) (P10415 whole entry, looked up): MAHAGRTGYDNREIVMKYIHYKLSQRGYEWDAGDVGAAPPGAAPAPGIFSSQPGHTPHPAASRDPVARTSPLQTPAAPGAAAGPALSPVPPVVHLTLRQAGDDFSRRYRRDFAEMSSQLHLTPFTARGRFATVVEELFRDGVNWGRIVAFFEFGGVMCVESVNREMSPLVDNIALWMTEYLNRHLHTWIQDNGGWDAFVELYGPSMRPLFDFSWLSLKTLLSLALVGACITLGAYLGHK
Sequence of Protein cereblon/Apoptosis regulator Bcl-2 (Homo sapiens) (Q96SW2 whole entry, looked up): as the sequence (Q96SW2 whole entry) above

RS4-11 = experiment: Antiproliferative activity against human RS4-11 cells assessed as reduction in cell viability measured after 48 hrs by MTS assay; assay type: functional, cell-based; details: RS4-11, 48 h
NCI-H146 = experiment: Antiproliferative activity against human NCI-H146 cells assessed as reduction in cell viability measured after 48 hrs by MTS assay; assay type: functional, cell-based; details: NCI-H146, 48 h
[4] = Toxicity in human platelet assessed as reduction in cell viability measured after 48 hrs by MTS assay; assay type: tissue-based; details: human platelets
[5] = Selectivity index, ratio of IC50 for human platelet to IC50 for human MOLT-4 cells
[6] = molecular target: von Hippel-Lindau disease tumor suppressor/Bcl-2-like protein 1 (Homo sapiens, UniProt Q07817+P40337); experiment: Protac activity at VHL/BCL-XL in human MOLT-4 cells assessed as induction of BCL-XL degradation by measuring remaining BCL-XL level at 100 nM measured after 16 hrs by immunoblotting analysis relative to control; assay type: cell-based
Sequence of von Hippel-Lindau disease tumor suppressor/Bcl-2-like protein 1 (P40337 whole entry, looked up): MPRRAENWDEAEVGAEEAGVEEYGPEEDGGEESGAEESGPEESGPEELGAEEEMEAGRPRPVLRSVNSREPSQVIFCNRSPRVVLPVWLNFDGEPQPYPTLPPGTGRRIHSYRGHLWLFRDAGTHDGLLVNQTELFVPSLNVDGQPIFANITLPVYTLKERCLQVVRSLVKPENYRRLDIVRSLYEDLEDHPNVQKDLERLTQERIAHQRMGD
Sequence of von Hippel-Lindau disease tumor suppressor/Bcl-2-like protein 1 (Q07817 whole entry, looked up): as the sequence (Q07817 whole entry) above

[7] = molecular target: von Hippel-Lindau disease tumor suppressor/Apoptosis regulator Bcl-2 (Homo sapiens) (UniProt P10415+P40337); experiment: Protac activity at VHL/BCL2 in human MOLT-4 cells assessed as induction of BCL2 degradation at 100 nM measured after 16 hrs by immunoblotting analysis; assay type: cell-based
Sequence of von Hippel-Lindau disease tumor suppressor/Apoptosis regulator Bcl-2 (Homo sapiens) (P10415 whole entry, looked up): as the sequence (P10415 whole entry, looked up) above
Sequence of von Hippel-Lindau disease tumor suppressor/Apoptosis regulator Bcl-2 (Homo sapiens) (P40337 whole entry, looked up): as the sequence (P40337 whole entry, looked up) above

SMILES: CN(CCCCCCCn1cc(COCCOCCNc2cccc3c2C(=O)N([C@@H]2CCC(=O)NC2=O)C3=O)nn1)CC[C@H](CSc1ccccc1)Nc1ccc(S(=O)(=O)NC(=O)c2ccc(N3CCN(CC4=C(c5ccc(Cl)cc5)CCC(C)(C)C4)CC3)cc2)cc1S(=O)(=O)C(F)(F)F
DC50 [1]: 6.3 nM | IC50 (MOLT-4): 29.2 nM | Activity [2]: 18% | Activity [3]: inactive | IC50 (RS4-11): 62.2 nM | IC50 (NCI-H146): 61.7 nM | IC50 at 48 h [4]: 6250 nM | Ratio IC50 [5]: 214

SMILES: Cc1ncsc1-c1ccc([C@H](C)NC(=O)[C@@H]2C[C@@H](O)CN2C(=O)[C@@H](NC(=O)COCCOCCOCCOCCN(C)CC[C@H](CSc2ccccc2)Nc2ccc(S(=O)(=O)NC(=O)c3ccc(N4CCN(CC5=C(c6ccc(Cl)cc6)CCC(C)(C)C5)CC4)cc3)cc2S(=O)(=O)C(F)(F)F)C(C)(C)C)cc1
IC50 (MOLT-4): 206 nM | Activity [6]: 33% | Activity [7]: inactive

SMILES: Cc1ncsc1-c1ccc([C@H](C)NC(=O)[C@@H]2C[C@@H](O)CN2C(=O)[C@@H](NC(=O)CCOCCC(=O)N2CCN(CC[C@H](CSc3ccccc3)Nc3ccc(S(=O)(=O)NC(=O)c4ccc(N5CCN(CC6=C(c7ccc(Cl)cc7)CCC(C)(C)C6)CC5)cc4)cc3S(=O)(=O)C(F)(F)F)CC2)C(C)(C)C)cc1
IC50 (MOLT-4): 324 nM | Activity [6]: 62% | Activity [7]: inactive

SMILES: Cc1ncsc1-c1ccc([C@H](C)NC(=O)[C@@H]2C[C@@H](O)CN2C(=O)[C@@H](NC(=O)COCCOCCN(C)CC[C@H](CSc2ccccc2)Nc2ccc(S(=O)(=O)NC(=O)c3ccc(N4CCN(CC5=C(c6ccc(Cl)cc6)CCC(C)(C)C5)CC4)cc3)cc2S(=O)(=O)C(F)(F)F)C(C)(C)C)cc1
IC50 (MOLT-4): 97 nM | Activity [6]: 24% | Activity [7]: inactive

SMILES: Cc1ncsc1-c1ccc([C@H](C)NC(=O)[C@@H]2C[C@@H](O)CN2C(=O)[C@@H](NC(=O)CC(=O)N2CCN(CC[C@H](CSc3ccccc3)Nc3ccc(S(=O)(=O)NC(=O)c4ccc(N5CCN(CC6=C(c7ccc(Cl)cc7)CCC(C)(C)C6)CC5)cc4)cc3S(=O)(=O)C(F)(F)F)CC2)C(C)(C)C)cc1
IC50 (MOLT-4): > 2000 nM | Activity [6]: 96% | Activity [7]: inactive

SMILES: Cc1ncsc1-c1ccc([C@H](C)NC(=O)[C@@H]2C[C@@H](O)CN2C(=O)[C@@H](NC(=O)CCCCCN(C)CC[C@H](CSc2ccccc2)Nc2ccc(S(=O)(=O)NC(=O)c3ccc(N4CCN(CC5=C(c6ccc(Cl)cc6)CCC(C)(C)C5)CC4)cc3)cc2S(=O)(=O)C(F)(F)F)C(C)(C)C)cc1
IC50 (MOLT-4): 460 nM | Activity [6]: 60% | Activity [7]: inactive

SMILES: Cc1ncsc1-c1ccc([C@H](C)NC(=O)[C@@H]2C[C@@H](O)CN2C(=O)[C@@H](NC(=O)CCCCN(C)CC[C@H](CSc2ccccc2)Nc2ccc(S(=O)(=O)NC(=O)c3ccc(N4CCN(CC5=C(c6ccc(Cl)cc6)CCC(C)(C)C5)CC4)cc3)cc2S(=O)(=O)C(F)(F)F)C(C)(C)C)cc1
IC50 (MOLT-4): 1240 nM | Activity [6]: 75% | Activity [7]: inactive

SMILES: Cc1ncsc1-c1ccc([C@H](C)NC(=O)[C@@H]2C[C@@H](O)CN2C(=O)[C@@H](NC(=O)COCCOCC(=O)N2CCN(CC[C@H](CSc3ccccc3)Nc3ccc(S(=O)(=O)NC(=O)c4ccc(N5CCN(CC6=C(c7ccc(Cl)cc7)CCC(C)(C)C6)CC5)cc4)cc3S(=O)(=O)C(F)(F)F)CC2)C(C)(C)C)cc1
IC50 (MOLT-4): 512 nM | Activity [6]: 79% | Activity [7]: inactive

SMILES: Cc1ncsc1-c1ccc([C@H](C)NC(=O)[C@@H]2C[C@@H](O)CN2C(=O)[C@@H](NC(=O)CCC(=O)N2CCN(CC[C@H](CSc3ccccc3)Nc3ccc(S(=O)(=O)NC(=O)c4ccc(N5CCN(CC6=C(c7ccc(Cl)cc7)CCC(C)(C)C6)CC5)cc4)cc3S(=O)(=O)C(F)(F)F)CC2)C(C)(C)C)cc1
IC50 (MOLT-4): > 2000 nM | Activity [6]: 92% | Activity [7]: inactive

SMILES: Cc1ncsc1-c1ccc([C@H](C)NC(=O)[C@@H]2C[C@@H](O)CN2C(=O)[C@@H](NC(=O)CCCCCCCCCN(C)CC[C@H](CSc2ccccc2)Nc2ccc(S(=O)(=O)NC(=O)c3ccc(N4CCN(CC5=C(c6ccc(Cl)cc6)CCC(C)(C)C5)CC4)cc3)cc2S(=O)(=O)C(F)(F)F)C(C)(C)C)cc1
IC50 (MOLT-4): 1060 nM | Activity [6]: 62% | Activity [7]: inactive

SMILES: Cc1ncsc1-c1ccc([C@H](C)NC(=O)[C@@H]2C[C@@H](O)CN2C(=O)[C@@H](NC(=O)CCCCCC(=O)N(C)CC[C@H](CSc2ccccc2)Nc2ccc(S(=O)(=O)NC(=O)c3ccc(N4CCN(CC5=C(c6ccc(Cl)cc6)CCC(C)(C)C5)CC4)cc3)cc2S(=O)(=O)C(F)(F)F)C(C)(C)C)cc1
IC50 (MOLT-4): > 2000 nM | Activity [6]: 78% | Activity [7]: inactive

SMILES: O=C1CCC(N2C(=O)c3cccc(NCCOCCOCc4cn(CCCC(=O)N5CCN(CC#Cc6ccc(OCCCc7sc(N8CCc9cccc(C(=O)Nc%10nc%11ccccc%11s%10)c9C8)nc7C(=O)O)c(F)c6)CC5)nn4)c3C2=O)C(=O)N1 (configuration not stated)
DC50 [1]: 50 nM

SMILES: Cc1ncsc1-c1ccc([C@H](C)NC(=O)[C@@H]2C[C@@H](O)CN2C(=O)[C@@H](NC(=O)COCCOCCOCCN(C)CC[C@H](CSc2ccccc2)Nc2ccc(S(=O)(=O)NC(=O)c3ccc(N4CCN(CC5=C(c6ccc(Cl)cc6)CCC(C)(C)C5)CC4)cc3)cc2S(=O)(=O)C(F)(F)F)C(C)(C)C)cc1
IC50 (MOLT-4): 200 nM | Activity [6]: 33% | Activity [7]: inactive

SMILES: Cc1ncsc1-c1ccc([C@H](C)NC(=O)[C@@H]2C[C@@H](O)CN2C(=O)[C@@H](NC(=O)CCCCCCCN(C)CC[C@H](CSc2ccccc2)Nc2ccc(S(=O)(=O)NC(=O)c3ccc(N4CCN(CC5=C(c6ccc(Cl)cc6)CCC(C)(C)C5)CC4)cc3)cc2S(=O)(=O)C(F)(F)F)C(C)(C)C)cc1
IC50 (MOLT-4): 147 nM | Activity [6]: 45% | Activity [7]: inactive

SMILES: Cc1ncsc1-c1ccc([C@H](C)NC(=O)[C@@H]2C[C@@H](O)CN2C(=O)[C@@H](NC(=O)COCCCOCC(=O)N2CCN(CC[C@H](CSc3ccccc3)Nc3ccc(S(=O)(=O)NC(=O)c4ccc(N5CCN(CC6=C(c7ccc(Cl)cc7)CCC(C)(C)C6)CC5)cc4)cc3S(=O)(=O)C(F)(F)F)CC2)C(C)(C)C)cc1
IC50 (MOLT-4): 232 nM | Activity [6]: 48% | Activity [7]: inactive

The next lines start with the values.

IC50 (MOLT-4): 467 nM | Activity [6]: 52% | Activity [7]: inactive
SMILES: Cc1ncsc1-c1ccc([C@H](C)NC(=O)[C@@H]2C[C@@H](O)CN2C(=O)[C@@H](NC(=O)CCCCC(=O)N2CCN(CC[C@H](CSc3ccccc3)Nc3ccc(S(=O)(=O)NC(=O)c4ccc(N5CCN(CC6=C(c7ccc(Cl)cc7)CCC(C)(C)C6)CC5)cc4)cc3S(=O)(=O)C(F)(F)F)CC2)C(C)(C)C)cc1

IC50 (MOLT-4): 914 nM | Activity [6]: 55% | Activity [7]: inactive
SMILES: Cc1ncsc1-c1ccc([C@H](C)NC(=O)[C@@H]2C[C@@H](O)CN2C(=O)[C@@H](NC(=O)CCOCCOCCN2CCN(CC[C@H](CSc3ccccc3)Nc3ccc(S(=O)(=O)NC(=O)c4ccc(N5CCN(CC6=C(c7ccc(Cl)cc7)CCC(C)(C)C6)CC5)cc4)cc3S(=O)(=O)C(F)(F)F)CC2)C(C)(C)C)cc1

IC50 (MOLT-4): 181 nM | Activity [6]: 78% | Activity [7]: inactive
SMILES: Cc1ncsc1-c1ccc([C@H](C)NC(=O)[C@@H]2C[C@@H](O)CN2C(=O)[C@@H](NC(=O)CCCCCCCN2CCN(CC[C@H](CSc3ccccc3)Nc3ccc(S(=O)(=O)NC(=O)c4ccc(N5CCN(CC6=C(c7ccc(Cl)cc7)CCC(C)(C)C6)CC5)cc4)cc3S(=O)(=O)C(F)(F)F)CC2)C(C)(C)C)cc1

IC50 (MOLT-4): 94.5 nM | Activity [6]: 62% | Activity [7]: inactive
SMILES: Cc1ncsc1-c1ccc([C@H](C)NC(=O)[C@@H]2C[C@@H](O)CN2C(=O)[C@@H](NC(=O)CCCCCCN2CCN(CC[C@H](CSc3ccccc3)Nc3ccc(S(=O)(=O)NC(=O)c4ccc(N5CCN(CC6=C(c7ccc(Cl)cc7)CCC(C)(C)C6)CC5)cc4)cc3S(=O)(=O)C(F)(F)F)CC2)C(C)(C)C)cc1

IC50 (MOLT-4): 108 nM | Activity [6]: 32% | Activity [7]: inactive
SMILES: Cc1ncsc1-c1ccc([C@H](C)NC(=O)[C@@H]2C[C@@H](O)CN2C(=O)[C@@H](NC(=O)CCCCCCC(=O)N2CCN(CC[C@H](CSc3ccccc3)Nc3ccc(S(=O)(=O)NC(=O)c4ccc(N5CCN(CC6=C(c7ccc(Cl)cc7)CCC(C)(C)C6)CC5)cc4)cc3S(=O)(=O)C(F)(F)F)CC2)C(C)(C)C)cc1

IC50 (MOLT-4): 130 nM | Activity [6]: 61% | Activity [7]: inactive
SMILES: Cc1ncsc1-c1ccc([C@H](C)NC(=O)[C@@H]2C[C@@H](O)CN2C(=O)[C@@H](NC(=O)CCCCN2CCN(CC[C@H](CSc3ccccc3)Nc3ccc(S(=O)(=O)NC(=O)c4ccc(N5CCN(CC6=C(c7ccc(Cl)cc7)CCC(C)(C)C6)CC5)cc4)cc3S(=O)(=O)C(F)(F)F)CC2)C(C)(C)C)cc1

IC50 (MOLT-4): > 2000 nM | Activity [6]: 82% | Activity [7]: inactive
SMILES: Cc1ncsc1-c1ccc([C@H](C)NC(=O)[C@@H]2C[C@@H](O)CN2C(=O)[C@@H](NC(=O)CCCC(=O)N2CCN(CC[C@H](CSc3ccccc3)Nc3ccc(S(=O)(=O)NC(=O)c4ccc(N5CCN(CC6=C(c7ccc(Cl)cc7)CCC(C)(C)C6)CC5)cc4)cc3S(=O)(=O)C(F)(F)F)CC2)C(C)(C)C)cc1

IC50 (MOLT-4): 151 nM | Activity [6]: 72% | Activity [7]: inactive
SMILES: Cc1ncsc1-c1ccc([C@H](C)NC(=O)[C@@H]2C[C@@H](O)CN2C(=O)[C@@H](NC(=O)CCOCCN2CCN(CC[C@H](CSc3ccccc3)Nc3ccc(S(=O)(=O)NC(=O)c4ccc(N5CCN(CC6=C(c7ccc(Cl)cc7)CCC(C)(C)C6)CC5)cc4)cc3S(=O)(=O)C(F)(F)F)CC2)C(C)(C)C)cc1
